# Several values for one entry are separate records, joined by “and”; a condition that tells them apart may be missing. Identical values can stand only once.
# Experiments:
# [1] = Inhibition of human recombinant 1R N-terminal His-tagged (919 to 1343 residues) expressed in baculovirus infected Sf21 measured after 20 mins by western blot analysis
# [2] = biological target: Tyrosine-protein kinase Lck (Homo sapiens, UniProt P06239); assay: Binding affinity to LCK (unknown origin) assessed as dissociation constant
# [3] = biological target: Tyrosine-protein kinase Fgr (Homo sapiens, UniProt P09769); assay: Binding affinity to FGR (unknown origin) assessed as dissociation constant
# [4] = biological target: Tyrosine-protein kinase Yes (Homo sapiens, UniProt P07947); assay: Binding affinity to YES (unknown origin) assessed as dissociation constant
# [5] = biological target: Proto-oncogene tyrosine-protein kinase Src (Homo sapiens, UniProt P12931); assay: Binding affinity to c-Src (unknown origin) assessed as inhibition constant
# MV4-11 = assay: Antitumor activity against human MV4-11 cells xenografted in athymic nu/nu mouse model assessed as tumor growth inhibition at 50 mg/kg administered a day measured after 14 days relative to control; type: functional; conditions: MV4-11, 336 h, time 14 day, read-out: TGI
# [6] = Inhibition of 1R (unknown origin); design: species or system Homo sapiens
# [7] = biological target: T1, Epidermal growth factor receptor (Homo sapiens, UniProt P00533); assay: Inhibition of wild type EGFR (unknown origin)
# [8] = biological target: Epidermal growth factor receptor (Homo sapiens, UniProt P00533, C797S/T790M); assay: Inhibition of EGFR T790M/C797S mutant (unknown origin)
# [9] = AUC (0 to t) in CD1 mouse at 1 mg/kg, iv by LC-MS/MS analysis; type: ADME, organism-based; design: dose 1 mg/kg, route iv; conditions: in vivo
# [10] = Half life in CD1 mouse at 1 mg/kg, iv by LC-MS/MS analysis; type: ADME, organism-based; conditions: in vivo
# [11] = AUC (0 to t) in CD1 mouse at 3 mg/kg, ip by LC-MS/MS analysis; type: ADME, organism-based; design: dose 3 mg/kg, route ip; conditions: in vivo
# [12] = Half life in CD1 mouse at 3 mg/kg, ip by LC-MS/MS analysis; type: ADME, organism-based; conditions: in vivo
# BaF3 = assay: cells; conditions: Mus musculus, BaF3, 72 h
# Description: Antiproliferative activity against mouse BaF3/TEL-FGFR1 cells measured after 72 hrs by CCK8 assay
# NCI-H1581 [13] = assay: animal or person; conditions: Mus musculus, BALB/c, NCI-H1581, 480 h, read-out: TGI
# Description: Antitumor activity against human NCI-H1581 cells xenografted in BALB/c mouse assessed as tumor growth inhibition at 50 mg/kg, ip administered once daily for 20 days measured after 32 days by LC_MS/MS analysis relative to control
# NCI-H1581 [14] = assay: animal or person; conditions: Mus musculus, BALB/c, NCI-H1581, 480 h, read-out: TGI; remark: listed apart in the source
# Description: Antitumor activity against human NCI-H1581 cells xenografted in BALB/c mouse assessed as tumor growth inhibition at 10 mg/kg, ip administered once daily for 20 days measured after 32 days by LC_MS/MS analysis relative to control
# [15] = biological target: Cytoplasmic tyrosine-protein kinase BMX (Homo sapiens, UniProt P51813); assay: Inhibition of BMX (unknown origin)
# [16] = biological target: T1, Epidermal growth factor receptor; assay: Inhibition of human recombinant His-tagged EGFR expressed in baculovirus using poly-Gluo-Tyr as a substrate measured after 24 hrs by western blot analysis
# [17] = biological target: T2, Fibroblast growth factor receptor 3 (Homo sapiens, UniProt P22607); assay: Inhibition of FGFR3 (unknown origin)
# [18] = biological target: Vascular endothelial growth factor receptor 2 (Homo sapiens, UniProt P35968); assay: Inhibition of VEGFR2 (unknown origin)
# [19] = biological target: Epidermal growth factor receptor (Homo sapiens, UniProt P00533, L858R); assay: Inhibition of EGFR L858R mutant (unknown origin)
# [20] = biological target: Epidermal growth factor receptor (Homo sapiens, UniProt P00533, L858R/T790M); assay: Inhibition of EGFR L858R/T790M mutant (unknown origin)
# [21] = biological target: Fibroblast growth factor receptor 1 (Homo sapiens, UniProt P11362); assay: Inhibition of human recombinant FGFR1
# [22] = biological target: Fibroblast growth factor receptor 2 (Homo sapiens, UniProt P21802); assay: Inhibition of human recombinant FGFR2
# [23] = biological target: T2, Fibroblast growth factor receptor 3; assay: Inhibition of human recombinant FGFR3
# [24] = biological target: Fibroblast growth factor receptor 4 (Homo sapiens, UniProt P22455); assay: Inhibition of human recombinant FGFR4
# animal or person = type: functional; conditions: Homo sapiens, HCC, 336 h, time 14 day, read-out: TGI
# Description: Antitumor activity against human HCC cells xenografted in athymic nu/nu mouse model assessed as tumor growth inhibition at 50 mg/kg measured after 14 days relative to control
# NCI-H1581 [25] = assay: Antitumor activity against human NCI-H1581 cells xenografted in athymic nu/nu mouse model assessed as tumor growth inhibition at 25 mg/kg measured after 14 days relative to control; conditions: NCI-H1581, 336 h, read-out: TGI
# [26] = biological target: T3, Phosphatidylinositol 4,5-bisphosphate 3-kinase catalytic subunit delta isoform (Homo sapiens, UniProt O00329); assay: Inhibition of PI3Kdelta (unknown origin) at 1 uM
# T3 sequence (O00329 whole entry): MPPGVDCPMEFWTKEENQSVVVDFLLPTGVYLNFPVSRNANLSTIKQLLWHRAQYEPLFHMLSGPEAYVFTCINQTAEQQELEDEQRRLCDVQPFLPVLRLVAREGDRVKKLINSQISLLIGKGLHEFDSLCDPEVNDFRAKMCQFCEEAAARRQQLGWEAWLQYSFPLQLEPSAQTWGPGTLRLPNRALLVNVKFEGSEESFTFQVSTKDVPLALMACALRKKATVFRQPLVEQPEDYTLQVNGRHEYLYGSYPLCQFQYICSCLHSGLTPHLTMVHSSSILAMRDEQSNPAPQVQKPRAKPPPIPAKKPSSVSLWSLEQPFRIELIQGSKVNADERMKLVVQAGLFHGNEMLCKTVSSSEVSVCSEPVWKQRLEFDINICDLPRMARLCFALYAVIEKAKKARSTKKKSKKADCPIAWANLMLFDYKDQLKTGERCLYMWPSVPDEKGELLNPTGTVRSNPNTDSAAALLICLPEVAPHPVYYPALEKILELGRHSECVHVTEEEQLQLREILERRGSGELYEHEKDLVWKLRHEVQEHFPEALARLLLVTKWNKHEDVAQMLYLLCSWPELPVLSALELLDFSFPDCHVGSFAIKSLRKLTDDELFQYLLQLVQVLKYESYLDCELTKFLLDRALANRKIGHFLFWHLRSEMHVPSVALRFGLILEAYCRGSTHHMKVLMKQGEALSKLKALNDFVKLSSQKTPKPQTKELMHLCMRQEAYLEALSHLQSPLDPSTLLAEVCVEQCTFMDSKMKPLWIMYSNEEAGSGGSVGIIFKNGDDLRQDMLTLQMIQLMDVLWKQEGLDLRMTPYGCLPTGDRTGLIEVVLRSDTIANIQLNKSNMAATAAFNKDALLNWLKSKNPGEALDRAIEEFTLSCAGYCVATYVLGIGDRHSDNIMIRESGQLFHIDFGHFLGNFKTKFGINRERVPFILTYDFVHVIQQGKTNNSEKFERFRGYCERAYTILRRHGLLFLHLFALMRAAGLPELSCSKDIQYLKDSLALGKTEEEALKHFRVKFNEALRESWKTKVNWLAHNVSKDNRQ
# T1 sequence (P00533 whole entry): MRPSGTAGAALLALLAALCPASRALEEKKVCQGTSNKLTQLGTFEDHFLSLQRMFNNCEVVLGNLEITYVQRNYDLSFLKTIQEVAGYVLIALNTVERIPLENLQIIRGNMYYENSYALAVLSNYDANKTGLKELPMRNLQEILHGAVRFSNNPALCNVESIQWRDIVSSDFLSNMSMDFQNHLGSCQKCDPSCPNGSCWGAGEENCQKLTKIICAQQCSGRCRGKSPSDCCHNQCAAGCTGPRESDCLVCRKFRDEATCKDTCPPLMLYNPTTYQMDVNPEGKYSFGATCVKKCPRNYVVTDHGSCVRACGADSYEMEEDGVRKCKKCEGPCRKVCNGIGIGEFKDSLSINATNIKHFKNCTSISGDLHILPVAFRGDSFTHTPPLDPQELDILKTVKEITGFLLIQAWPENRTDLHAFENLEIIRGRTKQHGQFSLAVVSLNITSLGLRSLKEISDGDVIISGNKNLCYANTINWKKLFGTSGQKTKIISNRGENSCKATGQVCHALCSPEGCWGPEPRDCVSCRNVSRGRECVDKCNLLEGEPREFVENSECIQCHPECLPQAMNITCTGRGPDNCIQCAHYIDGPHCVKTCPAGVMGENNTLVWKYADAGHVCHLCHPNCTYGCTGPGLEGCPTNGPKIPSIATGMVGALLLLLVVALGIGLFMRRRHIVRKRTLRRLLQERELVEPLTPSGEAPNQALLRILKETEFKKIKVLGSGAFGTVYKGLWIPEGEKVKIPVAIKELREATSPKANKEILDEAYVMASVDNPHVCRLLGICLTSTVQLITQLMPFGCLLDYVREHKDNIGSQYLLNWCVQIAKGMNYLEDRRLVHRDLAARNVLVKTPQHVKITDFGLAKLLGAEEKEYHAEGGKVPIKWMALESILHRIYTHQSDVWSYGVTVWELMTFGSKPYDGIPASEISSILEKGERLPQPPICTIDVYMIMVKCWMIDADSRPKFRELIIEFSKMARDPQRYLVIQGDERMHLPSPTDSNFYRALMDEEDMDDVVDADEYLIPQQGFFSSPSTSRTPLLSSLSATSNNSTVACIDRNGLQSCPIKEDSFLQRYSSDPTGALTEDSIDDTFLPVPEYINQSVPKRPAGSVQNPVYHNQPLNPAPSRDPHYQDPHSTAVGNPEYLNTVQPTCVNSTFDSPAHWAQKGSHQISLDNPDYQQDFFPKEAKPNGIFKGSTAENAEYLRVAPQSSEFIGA
# T2 sequence (P22607 whole entry): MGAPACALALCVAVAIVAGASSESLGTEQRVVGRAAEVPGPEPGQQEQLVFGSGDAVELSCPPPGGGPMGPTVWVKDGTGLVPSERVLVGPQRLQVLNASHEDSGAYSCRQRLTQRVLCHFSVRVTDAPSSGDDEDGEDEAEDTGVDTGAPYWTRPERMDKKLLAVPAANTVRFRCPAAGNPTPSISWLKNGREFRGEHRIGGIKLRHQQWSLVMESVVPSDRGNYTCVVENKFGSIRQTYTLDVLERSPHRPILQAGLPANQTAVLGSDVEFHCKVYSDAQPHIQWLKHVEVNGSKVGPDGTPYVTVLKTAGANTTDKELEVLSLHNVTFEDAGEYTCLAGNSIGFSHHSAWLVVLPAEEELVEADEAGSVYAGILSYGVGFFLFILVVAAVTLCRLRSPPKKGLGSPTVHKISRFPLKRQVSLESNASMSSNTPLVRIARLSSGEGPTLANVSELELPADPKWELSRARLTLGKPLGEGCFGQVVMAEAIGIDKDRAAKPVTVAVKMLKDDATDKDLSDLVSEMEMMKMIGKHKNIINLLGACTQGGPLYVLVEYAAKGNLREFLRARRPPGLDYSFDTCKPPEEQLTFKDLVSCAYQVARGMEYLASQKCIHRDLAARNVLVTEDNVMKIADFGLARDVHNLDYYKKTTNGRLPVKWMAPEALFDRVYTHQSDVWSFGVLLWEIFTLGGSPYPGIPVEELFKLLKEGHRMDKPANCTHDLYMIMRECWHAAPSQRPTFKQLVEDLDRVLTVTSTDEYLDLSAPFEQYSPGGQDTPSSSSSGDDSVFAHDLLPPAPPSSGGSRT
# Chain of Tyrosine-protein kinase Lck (P06239 whole entry): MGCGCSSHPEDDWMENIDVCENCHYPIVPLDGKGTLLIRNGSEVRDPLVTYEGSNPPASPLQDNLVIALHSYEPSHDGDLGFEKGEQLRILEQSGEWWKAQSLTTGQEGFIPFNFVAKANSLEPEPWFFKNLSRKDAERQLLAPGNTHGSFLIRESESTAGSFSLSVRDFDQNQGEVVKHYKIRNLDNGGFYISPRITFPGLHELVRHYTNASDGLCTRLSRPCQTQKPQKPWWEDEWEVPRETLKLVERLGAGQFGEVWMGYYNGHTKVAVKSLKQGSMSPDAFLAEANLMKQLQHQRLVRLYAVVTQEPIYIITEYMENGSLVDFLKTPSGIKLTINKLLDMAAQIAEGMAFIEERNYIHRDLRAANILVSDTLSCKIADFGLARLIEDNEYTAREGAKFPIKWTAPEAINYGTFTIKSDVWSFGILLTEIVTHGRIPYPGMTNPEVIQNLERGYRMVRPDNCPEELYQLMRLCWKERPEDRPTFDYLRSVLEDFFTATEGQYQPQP
# Chain of Fibroblast growth factor receptor 2 (P21802 whole entry): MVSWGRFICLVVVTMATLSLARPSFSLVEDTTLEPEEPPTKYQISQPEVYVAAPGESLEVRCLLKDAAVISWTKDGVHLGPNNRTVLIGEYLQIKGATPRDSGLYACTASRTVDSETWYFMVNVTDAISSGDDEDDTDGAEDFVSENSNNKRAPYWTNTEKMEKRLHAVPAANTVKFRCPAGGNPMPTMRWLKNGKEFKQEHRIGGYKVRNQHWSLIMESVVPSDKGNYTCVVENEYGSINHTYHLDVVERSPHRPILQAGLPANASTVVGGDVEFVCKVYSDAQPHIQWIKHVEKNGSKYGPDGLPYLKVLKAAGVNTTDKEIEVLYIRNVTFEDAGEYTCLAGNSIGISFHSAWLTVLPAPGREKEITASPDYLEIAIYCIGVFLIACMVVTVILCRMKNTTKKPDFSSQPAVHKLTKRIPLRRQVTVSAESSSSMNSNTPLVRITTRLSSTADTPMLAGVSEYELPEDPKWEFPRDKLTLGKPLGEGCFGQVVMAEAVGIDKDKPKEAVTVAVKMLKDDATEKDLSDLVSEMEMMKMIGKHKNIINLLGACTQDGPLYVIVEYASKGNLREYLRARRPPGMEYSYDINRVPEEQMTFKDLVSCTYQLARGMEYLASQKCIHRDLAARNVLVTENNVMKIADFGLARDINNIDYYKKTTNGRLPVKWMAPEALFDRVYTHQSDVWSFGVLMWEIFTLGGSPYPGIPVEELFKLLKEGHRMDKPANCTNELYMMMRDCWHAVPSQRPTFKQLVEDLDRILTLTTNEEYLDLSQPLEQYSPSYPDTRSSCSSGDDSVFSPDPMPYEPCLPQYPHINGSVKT
# Chain of Tyrosine-protein kinase Yes (P07947 whole entry): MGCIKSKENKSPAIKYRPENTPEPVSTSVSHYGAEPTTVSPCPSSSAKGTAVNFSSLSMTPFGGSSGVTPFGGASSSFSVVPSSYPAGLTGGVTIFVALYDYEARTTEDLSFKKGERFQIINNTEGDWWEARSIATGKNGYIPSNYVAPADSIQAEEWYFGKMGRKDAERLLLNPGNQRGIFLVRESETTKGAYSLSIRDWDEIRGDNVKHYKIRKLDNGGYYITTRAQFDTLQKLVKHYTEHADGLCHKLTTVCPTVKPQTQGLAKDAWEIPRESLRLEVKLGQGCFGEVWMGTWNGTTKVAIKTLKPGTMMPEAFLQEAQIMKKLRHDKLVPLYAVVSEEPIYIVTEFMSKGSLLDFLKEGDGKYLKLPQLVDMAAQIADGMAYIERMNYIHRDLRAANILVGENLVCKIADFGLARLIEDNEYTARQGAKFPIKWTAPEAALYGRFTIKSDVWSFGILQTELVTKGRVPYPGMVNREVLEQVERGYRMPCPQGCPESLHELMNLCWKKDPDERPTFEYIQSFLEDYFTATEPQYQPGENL
# Chain of Epidermal growth factor receptor (Homo sapiens, UniProt P00533, L858R) (P00533 25-1210 L858R limits assumed): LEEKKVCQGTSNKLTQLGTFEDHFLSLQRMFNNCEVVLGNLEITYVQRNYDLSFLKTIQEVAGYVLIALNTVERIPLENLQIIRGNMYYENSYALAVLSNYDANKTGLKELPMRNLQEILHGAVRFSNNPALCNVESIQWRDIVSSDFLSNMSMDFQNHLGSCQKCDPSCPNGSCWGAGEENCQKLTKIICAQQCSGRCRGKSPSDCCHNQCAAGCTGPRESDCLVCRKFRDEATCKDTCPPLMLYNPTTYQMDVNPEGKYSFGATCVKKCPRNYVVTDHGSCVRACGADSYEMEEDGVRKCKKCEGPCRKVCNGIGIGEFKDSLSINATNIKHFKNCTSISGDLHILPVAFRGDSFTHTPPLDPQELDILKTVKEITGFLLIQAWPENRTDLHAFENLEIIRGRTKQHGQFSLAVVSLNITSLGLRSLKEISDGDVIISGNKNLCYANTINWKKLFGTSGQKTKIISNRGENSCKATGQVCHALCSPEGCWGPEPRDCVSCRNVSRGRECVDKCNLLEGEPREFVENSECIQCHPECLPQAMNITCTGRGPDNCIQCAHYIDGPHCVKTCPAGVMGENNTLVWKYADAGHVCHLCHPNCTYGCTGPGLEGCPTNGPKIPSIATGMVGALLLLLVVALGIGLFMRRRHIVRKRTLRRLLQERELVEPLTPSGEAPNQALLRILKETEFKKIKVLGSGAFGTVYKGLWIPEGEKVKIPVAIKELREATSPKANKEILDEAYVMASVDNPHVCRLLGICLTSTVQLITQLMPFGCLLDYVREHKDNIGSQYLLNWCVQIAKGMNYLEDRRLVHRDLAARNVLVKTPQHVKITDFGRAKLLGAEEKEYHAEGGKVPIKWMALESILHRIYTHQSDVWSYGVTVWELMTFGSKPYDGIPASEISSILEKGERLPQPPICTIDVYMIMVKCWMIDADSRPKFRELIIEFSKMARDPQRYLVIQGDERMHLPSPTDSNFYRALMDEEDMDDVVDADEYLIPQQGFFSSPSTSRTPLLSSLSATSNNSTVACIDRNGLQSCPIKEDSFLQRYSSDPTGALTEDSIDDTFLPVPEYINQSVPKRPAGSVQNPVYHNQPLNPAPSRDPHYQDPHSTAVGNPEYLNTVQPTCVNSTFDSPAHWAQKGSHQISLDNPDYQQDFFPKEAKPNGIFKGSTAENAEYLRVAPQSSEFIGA
smiles,measurement,setting,value
Nc1ncnc2c1c(-c1cccc(OCc3ccccc3)c1)cn2[C@H]1C[C@@H](CN2CCC2)C1,IC50,[1],2300 nM
Nc1ncnc2c1c(-c1ccc(Cl)cc1)nn2-c1cccc(-c2cnnn2Cc2cccc(-c3ccccc3)c2)c1,Kd,[2],86 nM and 160 nM
same,Kd,[3],240 nM
same,Kd,[4],720 nM
same,Ki,[5],44 nM
CN(C)CC(=O)N1CCC[C@@H](n2nc(-c3ccc(Oc4ccccc4)cc3)c3c(N)ncnc32)C1,inhibition in vivo at 50 mg/kg,MV4-11,88%
Nc1ncnc2c1c(-c1cccc(OCc3ccccc3)c1)cn2[C@H]1C[C@H](CN2CCCC2)C1,IC50,[6],2800 nM
C=CC(=O)N1CCC[C@@H](n2nc(-c3cn(C)c4ccccc34)c3c(N)ncnc32)C1,IC50,[7],58 nM
same,IC50,[8],1.9 nM
Cc1ccc2oc(-c3c4c(N)n[nH]c(=O)c4nn3-c3ccc(NC(=O)/C=C/CN(C)C)cc3)c(C)c2c1,AUCt,[9],281 ng·h/mL
same,half-life,[10],1.39 h
same,AUCt,[11],704 ng·h/mL
same,half-life,[12],3.7 h
same,IC50,BaF3,< 0.3 nM
same,inhibition in vivo at 50 mg/kg,NCI-H1581 [13],91.6%
same,inhibition in vivo at 10 mg/kg,NCI-H1581 [14],74.4%
N#CN1CCC[C@@H](n2nc(-c3ccc(Oc4ccc(F)cc4F)cc3)c(C(N)=O)c2N)C1,IC50,[15],0.9 nM
COc1cccc(-c2cn(-c3ccc(CCN4CCC(O)CC4)cc3)c3ncnc(N)c23)c1,IC50,[16],150 nM
C#CCO[C@@H]1[C@H](C)[C@@H](COC(=O)c2ccc(S(=O)(=O)F)cc2)O[C@H]1n1nc(-c2ccc(C)cc2)c2c(N)ncnc21,IC50,[17],1.6 nM
same,IC50,[18],475 nM
N#C/C(=C/C(=O)N1CCC[C@@H](n2nc(-c3cnc4[nH]ccc4c3)c3c(N)ncnc32)C1)C1CC1,IC50,[7],13 nM
same,IC50,[19],2 nM
same,IC50,[20],2.7 nM
C=CC(=O)N1CC[C@H](c2nc(-c3cc4cc(Br)cc(OC)c4s3)c3c(N)nccn23)C1,IC50,[21],< 0.3 nM
same,IC50,[22],1.1 nM
same,IC50,[23],< 0.3 nM
same,IC50,[24],0.5 nM
same,inhibition in vivo at 50 mg/kg,animal or person,97.8%
same,inhibition in vivo at 25 mg/kg,NCI-H1581 [25],84.6%
Nc1ncnc2c1c(-c1cc(O)c(Br)c(F)c1)nn2C1CCc2ccccc2C1 (stereo not given),IC50,[26],0.27 nM

# Source: ChEMBL document CHEMBL5241118, “4-Aminopyrazolopyrimidine scaffold and its deformation in the design of tyrosine and serine/threonine kinase inhibitors in medicinal chemistry” (RSC Med Chem, 2022)
